Results on eight compounds are retold here after US20090137538A1, “METHOD OF TREATING ATROPHIC VAGINITIS” (priority 2006, published 2009).

The conditions of series [1]: cited from earlier work.
In series [2] the test system is endometrium. The series can be described thus: Example 6: endometrial biopsy at 6 months. The conditions noted are these: vaginal dose of 30 mg in the combination suppository, biopsy after 6 months. The class given is in vivo, human.
Text: Five patients underwent an endometrial biopsy (EMB) after 6 months of treatment.
The conditions of series [3]: cited from earlier work. This is another data set of the same source.
For series [4] the following is noted: relative risk ratio vs placebo, cited from earlier work.
For series [5] the following is noted: vaginal ring, after vaginal administration; cited from earlier work.
Series [6] deals with T1, sex hormone-binding globulin (SHBG) (Homo sapiens, UniProt P04278).
T1 sequence (P04278 30-402): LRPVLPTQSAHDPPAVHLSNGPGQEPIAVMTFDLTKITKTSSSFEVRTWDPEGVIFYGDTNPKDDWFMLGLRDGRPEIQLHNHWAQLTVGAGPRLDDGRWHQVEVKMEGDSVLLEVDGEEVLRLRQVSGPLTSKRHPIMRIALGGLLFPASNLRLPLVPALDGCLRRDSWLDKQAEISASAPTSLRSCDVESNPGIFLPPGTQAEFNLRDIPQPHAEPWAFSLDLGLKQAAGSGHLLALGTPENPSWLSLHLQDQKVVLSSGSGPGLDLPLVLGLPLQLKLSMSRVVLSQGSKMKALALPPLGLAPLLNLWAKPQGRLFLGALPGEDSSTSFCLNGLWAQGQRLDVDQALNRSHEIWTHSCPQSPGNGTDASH
The conditions noted are these: unlike estradiol and estrone; cited from earlier work.

Series [7] has as its system endometrium. Conditions: oral 2 mg per day, average three weeks prior to hysterectomy; cited from earlier work.
Another series relates to SIV. The conditions noted are these: vaginal transmission; base cream alone 75%; cited from earlier work.
The subject of series [8] is women with recurrent urinary tract infections. The conditions noted are these: cited from earlier work.
For series [9], the system named is urinary urgency, urge incontinence, nocturia. The conditions noted are these: vaginal therapy; cited from earlier work.
Another series concerns menopausal women. The conditions noted are these: cited from earlier work.
Another series deals with lactobacilli. Conditions: cited from earlier work.
The conditions of series [10]: cited from earlier work. This is another data set of the same source.
Where [11] appears, read: dose of 0.5 mg, menopausal patients.

SMILES strings stand for the structures. Like-named read-outs stand apart in the source and are kept apart here.

`CC(=O)[C@H]1CC[C@H]2[C@@H]3CCC4=CC(=O)CC[C@]4(C)[C@H]3CC[C@]12C` [Progesterone, pregn-4-ene-3, 20-dione]: the serum concentration in series [1] (25 mg vaginal suppository) is 7.27 ng/mL. In [1] (50 mg vaginal suppository), the serum concentration is 8.84 ng/mL. Also, in the series with endometrium [2], the “effect on estrogen stimulated postmenopausal endometrium” value is on record as “anti-proliferative effect”. In addition, the “Quality of life/menopausal symptoms” value in [3] (MP-containing HRT compared with MPA-containing regimen) was “containing HRT experienced significant improvement in symptoms”. Besides, in [3] (in vivo), the “Cardiovascular Events” value is “MP: has antihypertensive action and can be safely used to treat”; the “Lipid Profile” value is “MP: does not negate the beneficial effects of estrogen and modestly”; the Liver function result was “MP: does not effect liver enzymes or cause liver related side”; the “Sleep and Mood” value is “MP: improves the quality of sleep and has sedative properties”.

Regarding `CC(=O)O[C@]1(C(C)=O)CC[C@H]2[C@@H]3C[C@H](C)C4=CC(=O)CC[C@]4(C)[C@H]3CC[C@@]21C` [MPA, Medroxyprogesterone Acetate], in series [3] (in vivo), the “Lipid Profile” value is “MPA: adversely effects lipid profile and negates the beneficial”; the Liver function entry was “MPA: contraindicated in patients with liver dysfunction”; the “Sleep and Mood” value is “MPA: can cause insomnia, mental depression, and anxiety”.

With `CCN(CC)CC#CCOC(=O)C(O)(c1ccccc1)C1CCCCC1` (stereo not drawn) [Oxybutynin IR, Oxybutynin], in series [4] (dose 8.8-15 mg), the “Any AE*” value was 1.4, the “Blurred Vision” value was 1.7, the “Dry Mouth” value was 3.3 and the Dyspepsia is reported as 3.3. The “Urinary Retention*” value in series [4] (dose 8.8-15 mg) is on record as 5.6.

As for `C#C[C@]1(O)CC[C@H]2[C@@H]3CCc4cc(O)ccc4[C@H]3CC[C@@]21C` [ethinylestradiol], the bioavailability entry in series [5] is recorded as “approximately 55.6%”.

Take `C[C@]12CC[C@@H]3c4ccc(O)cc4CC[C@H]3[C@@H]1C[C@@H](O)[C@@H]2O` [Estriol, 16-alpha, 17-beta, estra 1,3,5 (10) triene 3, 16, 17-triol]: in series [6], the “binding to sex hormone-binding globulin” value was “does not bind”. Further, in the series on endometrium [7], the “women with hyperplastic changes on histological exam of the uteri” value is reported as 70.8%. Moreover, the SIV infection rate in the series with SIV is listed as 8.3%. Besides, in series [8], the “reduction of the requirement for antibiotics compared to those unsupplemented” value is “up to 16 times”. In addition, in [9], the alleviating nocturia is 54%, the alleviating urge incontinence is given as 58% and the alleviating urinary urgency is recorded as 56%. Besides, the “reduction of the vaginal pH” value with menopausal women (setting [11]) is reported as “failed to reduce”. For the same compound, the “vaginal pH after therapy” value in the series with menopausal women (menopausal women, ovules 1 mg, 24 weeks) is given as 4.12. For the same compound, the “patients in whom lactobacilli reappeared” value in the series with lactobacilli (after one month, no patients receiving placebo) is recorded as 61%. Further, the “restoration of the population of lactobacilli” value in the series on lactobacilli (setting [11]) is “failed to restore”.

For the compound `NC(=O)C(c1ccccc1)(c1ccccc1)[C@@H]1CCN(CCc2ccc3c(c2)CCO3)C1` [Darifenacin], in series [4] (dose 7.5 mg), the “Any AE*” value is listed as 1.2, the Constipation is on record as 2.2 and the “Dry Mouth” value is reported as 2.2. In series [4] (dose 15 mg), the “Any AE*” value is 1.4, the Constipation is 2.4 and the “Dry Mouth” value was 2.9.

Consider `C[C@]12CC[C@@H]3c4ccc(O)cc4CC[C@H]3[C@@H]1CC[C@@H]2O` [estradiol], for which, in [10] (same dose), the “serum estradiol levels after vaginal versus oral administration” value is listed as “ten-fold higher”. The “endometrial concentrations after vaginal versus oral administration” value in series [10] (same exact dose) was “seventy-fold higher”.

With `O=C(O[C@H]1C[C@H]2CC[C@@H](C1)[N+]21CCCC1)C(O)(c1ccccc1)c1ccccc1` [Trospium], in [4] (dose 40 mg), the “Any AE*” value is given as 1.5, the Constipation was 2.1 and the “Dry Mouth” value is reported as 3.2.
